Columns and labels:
[1] = Circular dichroism (CD) spectroscopy of peptide assemblies; assay type: physicochemical; settings: 100 µM, aqueous, 0.5 mm path
Description: CD spectra of the peptide assemblies in aqueous solutions were recorded under the nitrogen atmosphere using a spectrophotometer JASCO J-820 (Jasco, Japan). A quartz cuvette with 0.5 mm path length was used as a sample container. Continuous scanning mode is applied. And each sample is scanned three times to obtain an averaged spectrum.

[2] = tested on: paxillin Y118 phosphorylation in HuH-7 cells; assay: Western blotting Paxillin / pY118 Paxillin; assay type: cell-based, human
Description: Protein lysates were prepared in ice-cold RIPA lysis, and extraction buffer (Thermo Scientific) supplemented with 1% Halt Protease Inhibitor (Thermo Scientific) and 1% Halt Phosphatase inhibitor (Thermo Scientific). Cells were scraped off from the culture surface using a cold plastic cell scraper, and the cell suspension was then gently transferred into a pre-cooled microcentrifuge tube and maintained on ice for 30 min with constant agitation before centrifuged at 21000 × g for 20 min. The supernatant was then transferred to a new tube, and the protein concentration of the supernatant was quantified according to the Pierce™ BCA Protein Assay Kit (Thermo Scientific). The rest of the supernatant was mixed with 4x laemmli sample buffer (Bio-Rad) in a 1:3 ratio and boiled at 100 °C for 10 min. Lysates can be aliquoted and stored at −80 °C freezer. When running the gel, 30 μg of protein was loaded into each well of the SDS-PAGE gels, along with a molecular weight marker (Bio-Rad). The gel was run for 2 hr at constantly 100 V to separate the proteins based on the molecular weight. The proteins were then transferred from the SDS-gel to a PVDF membrane (Bio-Rad) using a Transfer-blot turbo system (Bio-Rad). Once the membranes were blocked with Blocking One P solution (Nacalai) for 20 min at room temperature with gentle shaking, they were probed with antibodies against GAPDH (6C5, ab8245, Abcam, 1:1000), integrin beta 1 (12G10, ab30394, Abcam, 1:100), integrin alpha 3 (ASC-1, MA5-28565, Invitrogen, 1:100), integrin alpha 6 (EPR18124, ab191551, Abcam, 1:200), Phospho-Myosin Light Chain 2 (Thr18/Ser19)(pMLC, #3647, Cell Signaling Technology, 1:200) diluted in Tris-Buffered Saline containing 0.1% Tween-20 and 5% Blocking one P solution and the membrane was incubated in the dark for overnight at 4 °C with gentle shaking. The unbounded antibodies were washed out with tris-buffered saline (TBS) containing 0.1% Tween-20 (TBS- T) for 10 min for at least 6 times. […] Protein bands were quantified by measuring peak areas using ImageJ. […]

[3] = tested on: FAK Y397 phosphorylation in HuH-7 cells; assay: Western blotting FAK / pY397 FAK; assay type: cell-based, human
[4] = tested on: integrin knockdown HuH-7 cells; assay: Cell adhesion assay, integrin knockdown HuH-7; assay type: cell-based, human; settings: coated with 100 µM FFFIKLLI, n = 30
Description: Integrin β1 shRNA plasmid (#sc-29375-SH), Integrin α3 shRNA plasmid (#sc-35684-SH), Integrin α6 shRNA plasmid (#sc-43129-SH), and control shRNA plasmid-A (#sc-108060) were purchased from Santa Cruz Biotechnology for knockdown of the target integrins. The knockdown efficiency was evaluated by western blotting.
The 96-well microplates wells were coated with peptide assemblies (the concentration of FFFIKLLI was kept at 100 μM constantly) for 12 hr at 37 °C before blocked with the Blocking Buffer (2% BSA, 1 mM CaCI2 and 1 mM MnCI2 in PBS) for 1 hr at 37 °C. Cells were collected from culture dishes and suspended in the Blocking Buffer containing anti-laminin-5 (P3H9-2, MAB1947, Chemicon, 5 μg/ml), anti-fibronectin (IST-9, ab6328, Abcam, 20 μg/ml) or IgG isotype control (20 μg/ml, Abcam) before immediately seeded to the coated well (20,000 cells/well) and allowed to incubate at 37 °C for 1 h. The wells were washed for three times with the Blocking Buffer and the phase-contrast images were captured by IncucyteS3 (Essen Bioscience) with a 10× objective.

[5] = tested on: MCF-7 and Ect1/E6E7 cells; assay: Wound healing assay, cells lacking integrin α3β1; assay type: cell-based, human; settings: 10-200 µM, 48 hr
Description: Healthy cells were seeded in 96-well Image Lock plates (Essen Bioscience, UK). Each well contained 2 ×10^4 to 5 × 10^4 cells in 100 μL of complete cell culture medium. Cell monolayer with approximately 90% confluence formed after 12 hr and cells were next starved in serum-free culture medium for 12 hrs. Homogenous scratch wounds with a width of about 700 μm were made by an Essen BioScienceWound Maker. The detached cells were washed with Dulbecco’s Buffered Saline (DPBS, Gibco) 3 times. Cells were incubated with 100 μL of culture medium containing 0.5 % FBS and desired concentration of each peptide. Wound closure was monitored by an IncucyteS3 (Essen Bioscience) with a 10x objective. Images for each well were acquired every 2 hr to 8 hr for 2 days or until the wounds were closed completely. The wound healing rate was quantified by Incucyte Scratch Wound Analysis Module (Essen Bioscience). The experiments were repeated at least 3 times, and the results were presented as mean ± standard deviation of at least 3 independent experiments.

[6] = relative to Ctrl = 1, 12 hr, representative blot

Sequence: FFFIKLLI [assembling ligand: FFF coupled to the N-terminus of IKLLI; self-assembles into nanofilaments]
- secondary structure of self-assembly [1]: random coil structure
- paxillin Y118 phosphorylation ([2]; HuH-7, 12 hr, n = 9): reduction
- Paxillin band [2, 6]: 1.01
- pY118Paxillin band [2, 6]: 0.34
- FAK Y397 phosphorylation ([3]; HuH-7, 12 hr, n = 9): reduction
- FAK band [3, 6]: 0.87
- pY397FAK band [3, 6]: 0.34
- adherence after knockdown of α3 or β1 subunit [4]: significantly reduced their adherence
- effect on cell migration [5]: negligible influence

From publication PMC9411606, “Control cell migration by engineering integrin ligand assembly” (Nature Communications, 2022)
